IC50 and inhibition in vivo data for 5 compounds are collected here from ChEMBL document CHEMBL4813994, “Discovery of novel and potent PARP/PI3K dual inhibitors for the treatment of cancer” (Eur J Med Chem, 2021).

Where only a bound is given, the exact number is not on record here.

In the first assay the target is Poly [ADP-ribose] polymerase 1 (Homo sapiens, UniProt P09874). Briefly: Inhibition of PARP1 (unknown origin) using biotin-NAD+ as substrate incubated for 1 hr by ELISA.
Sequence of Poly [ADP-ribose] polymerase 1 (P09874 whole entry): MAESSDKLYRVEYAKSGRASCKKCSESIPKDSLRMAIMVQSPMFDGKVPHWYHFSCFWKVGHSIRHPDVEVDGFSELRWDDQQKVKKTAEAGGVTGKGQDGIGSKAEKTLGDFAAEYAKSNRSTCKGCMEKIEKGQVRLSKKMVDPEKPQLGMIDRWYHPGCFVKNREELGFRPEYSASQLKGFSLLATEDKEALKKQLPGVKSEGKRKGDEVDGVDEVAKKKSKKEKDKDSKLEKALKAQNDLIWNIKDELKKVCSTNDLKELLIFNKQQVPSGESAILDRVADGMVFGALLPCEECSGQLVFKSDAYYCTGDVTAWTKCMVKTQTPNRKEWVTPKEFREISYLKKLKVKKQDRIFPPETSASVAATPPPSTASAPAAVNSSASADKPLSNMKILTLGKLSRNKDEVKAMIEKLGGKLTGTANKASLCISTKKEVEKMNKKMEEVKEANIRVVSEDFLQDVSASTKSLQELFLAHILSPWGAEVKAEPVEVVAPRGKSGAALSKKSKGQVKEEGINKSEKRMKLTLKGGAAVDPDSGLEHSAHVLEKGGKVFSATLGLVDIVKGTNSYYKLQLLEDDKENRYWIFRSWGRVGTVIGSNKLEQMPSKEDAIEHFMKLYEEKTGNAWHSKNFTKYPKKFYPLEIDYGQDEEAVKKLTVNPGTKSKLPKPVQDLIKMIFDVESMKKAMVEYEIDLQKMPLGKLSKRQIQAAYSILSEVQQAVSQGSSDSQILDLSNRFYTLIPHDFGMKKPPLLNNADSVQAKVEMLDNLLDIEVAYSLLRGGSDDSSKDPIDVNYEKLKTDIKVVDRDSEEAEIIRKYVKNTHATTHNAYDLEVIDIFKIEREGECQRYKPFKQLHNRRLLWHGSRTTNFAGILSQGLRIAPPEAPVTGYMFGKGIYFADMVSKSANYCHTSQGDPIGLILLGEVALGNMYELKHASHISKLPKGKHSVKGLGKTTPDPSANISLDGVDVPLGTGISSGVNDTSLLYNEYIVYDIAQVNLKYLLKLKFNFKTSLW
Details: not given
Broadly, the IC50 is the midpoint of a concentration-inhibition curve. For `Cc1c(CN2CCN(C(=O)c3cc4cccc(C(N)=O)c4o3)CC2)sc2c(N3CCOCC3)nc(-c3ccc(N)cc3)nc12`, inhibition was half-maximal at 0.0226 µM (IC50).

Consider `NC(=O)c1cccc2cc(C(=O)N3CCN(Cc4cc5nc(-c6cnc(N)nc6)nc(N6CCOCC6)c5s4)CC3)oc12`, for which half-maximal inhibition (IC50) was put at 0.00198 µM.

`Cc1c(CN2CCN(C(=O)c3cc4cccc(C(N)=O)c4o3)CC2)sc2c(N3CCOCC3)nc(-c3ccc4cn[nH]c4c3)nc12` displayed a half-inhibitory concentration (IC50) of 0.0915 µM.

As for `Cc1c(CN2CCN(C(=O)c3cc(Cc4n[nH]c(=O)c5ccccc45)ccc3F)CC2)sc2c(N3CCOCC3)nc(-c3cnc(N)cc3C(F)(F)F)nc12`, half-maximal inhibition (IC50) was put at 0.197 µM.

The target in another assay is Phosphatidylinositol 4,5-bisphosphate 3-kinase catalytic subunit alpha isoform (Homo sapiens, UniProt P42336). The assay can be described thus: Inhibition of PI3Kalpha (unknown origin) using PIP2 as substrate measured after 40 mins by ADP-glo plus luminescence assay.
Sequence of Phosphatidylinositol 4,5-bisphosphate 3-kinase catalytic subunit alpha isoform (P42336 whole entry, canonical isoform): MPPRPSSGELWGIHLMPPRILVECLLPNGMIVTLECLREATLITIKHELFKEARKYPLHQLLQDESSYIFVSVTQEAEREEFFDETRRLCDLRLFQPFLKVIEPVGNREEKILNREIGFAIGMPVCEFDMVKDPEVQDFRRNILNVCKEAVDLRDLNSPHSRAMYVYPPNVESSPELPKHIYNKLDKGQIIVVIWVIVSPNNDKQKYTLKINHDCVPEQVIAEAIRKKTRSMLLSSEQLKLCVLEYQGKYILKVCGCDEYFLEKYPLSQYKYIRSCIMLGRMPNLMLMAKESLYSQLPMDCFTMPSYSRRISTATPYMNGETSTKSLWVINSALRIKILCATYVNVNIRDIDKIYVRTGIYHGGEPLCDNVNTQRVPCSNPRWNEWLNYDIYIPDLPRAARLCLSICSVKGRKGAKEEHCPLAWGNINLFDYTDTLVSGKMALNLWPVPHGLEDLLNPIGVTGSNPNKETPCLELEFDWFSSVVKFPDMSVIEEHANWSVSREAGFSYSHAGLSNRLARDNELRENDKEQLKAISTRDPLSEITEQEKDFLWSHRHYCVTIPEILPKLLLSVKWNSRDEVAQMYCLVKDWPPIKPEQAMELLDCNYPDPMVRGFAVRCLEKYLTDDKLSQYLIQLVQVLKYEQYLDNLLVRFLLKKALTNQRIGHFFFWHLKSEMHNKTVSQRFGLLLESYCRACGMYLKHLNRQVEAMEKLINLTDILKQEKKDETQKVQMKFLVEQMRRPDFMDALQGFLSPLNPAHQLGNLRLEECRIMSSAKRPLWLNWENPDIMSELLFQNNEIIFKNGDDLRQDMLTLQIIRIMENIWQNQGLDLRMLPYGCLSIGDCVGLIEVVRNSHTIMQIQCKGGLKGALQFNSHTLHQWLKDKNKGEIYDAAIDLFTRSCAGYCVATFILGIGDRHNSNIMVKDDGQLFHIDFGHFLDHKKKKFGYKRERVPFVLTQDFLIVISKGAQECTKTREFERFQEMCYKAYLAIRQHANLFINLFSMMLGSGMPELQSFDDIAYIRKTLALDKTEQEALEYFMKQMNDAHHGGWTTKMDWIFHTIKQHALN
Details: not given
A general note: In ADP-Glo the light output rises with the ADP produced.
On to `Cc1c(CN2CCN(C(=O)c3cc4cccc(C(N)=O)c4o3)CC2)sc2c(N3CCOCC3)nc(-c3ccc(N)cc3)nc12`, for which the half-inhibitory concentration (IC50) came out at 0.319 µM.

As for `NC(=O)c1cccc2cc(C(=O)N3CCN(Cc4cc5nc(-c6cnc(N)nc6)nc(N6CCOCC6)c5s4)CC3)oc12`, the IC50 worked out at 0.0006 µM.

For `Cc1c(CN2CCN(C(=O)c3cc4cccc(C(N)=O)c4o3)CC2)sc2c(N3CCOCC3)nc(-c3ccc4cn[nH]c4c3)nc12`, the IC50 was 3.81 µM.

In the case of `Cc1c(CN2CCN(C(=O)c3cc(Cc4n[nH]c(=O)c5ccccc45)ccc3F)CC2)sc2c(N3CCOCC3)nc(-c3cnc(N)cc3C(F)(F)F)nc12`, the IC50 was found to be 0.007 µM.

Another assay has as its system HCT-116. Briefly: Antiproliferative activity against human BRCA-2 deficient HCT-116 cells assessed as reduction in cell growth incubated for 7 days by cell titer-glo assay. It counts as functional, cell-based. As to conditions: HCT-116, 168 h.
For `Cc1c(CN2CCN(C(=O)c3cc4cccc(C(N)=O)c4o3)CC2)sc2c(N3CCOCC3)nc(-c3ccc(N)cc3)nc12`, the IC50 came to 3.97 µM.

Regarding `Cc1c(CN2CCN(C(=O)c3cc4cccc(C(N)=O)c4o3)CC2)sc2c(N3CCOCC3)nc(-c3ccc4cn[nH]c4c3)nc12`, the IC50 is 5.07 µM.

With `Cc1c(CN2CCN(C(=O)c3cc(Cc4n[nH]c(=O)c5ccccc45)ccc3F)CC2)sc2c(N3CCOCC3)nc(-c3cnc(N)cc3C(F)(F)F)nc12`, the concentration for half-maximal inhibition (IC50) was 0.69 µM.

`Cc1c(CN2CCN(C(=O)[C@H](C)O)CC2)sc2c(N3CCOCC3)nc(-c3cnc(N)nc3)nc12` [APITOLISIB]: the IC50 stood at 1.11 µM.

Another assay concerns SW-620. The assay can be described thus: Antiproliferative activity against human BRCA-2 proficient SW-620 cells assessed as reduction in cell growth incubated for 7 days by cell titer-glo assay. As to conditions: SW-620, 168 h. It counts as functional, cell-based.
Take `Cc1c(CN2CCN(C(=O)c3cc4cccc(C(N)=O)c4o3)CC2)sc2c(N3CCOCC3)nc(-c3ccc(N)cc3)nc12`: the IC50 turned out to be 7.98 µM.

For `Cc1c(CN2CCN(C(=O)c3cc4cccc(C(N)=O)c4o3)CC2)sc2c(N3CCOCC3)nc(-c3ccc4cn[nH]c4c3)nc12`, the half-maximal inhibitory concentration (IC50) was more than 10 µM.

For the compound `Cc1c(CN2CCN(C(=O)c3cc(Cc4n[nH]c(=O)c5ccccc45)ccc3F)CC2)sc2c(N3CCOCC3)nc(-c3cnc(N)cc3C(F)(F)F)nc12`, the concentration for half-maximal inhibition (IC50) came out at 7.23 µM.

For the compound `Cc1c(CN2CCN(C(=O)[C@H](C)O)CC2)sc2c(N3CCOCC3)nc(-c3cnc(N)nc3)nc12` [APITOLISIB], the 50% inhibitory concentration (IC50) is 1.72 µM.

The next assay relates to HCC1937. The assay can be described thus: Antiproliferative activity against human BRCA-1 deficient HCC1937 cells assessed as reduction in cell growth incubated for 7 days by cell titer-glo assay. It counts as functional, cell-based. As to conditions: HCC1937, 168 h. Background: Cellular ATP, detected with luciferase, serves as a proxy for viable cell number.
For `Cc1c(CN2CCN(C(=O)c3cc4cccc(C(N)=O)c4o3)CC2)sc2c(N3CCOCC3)nc(-c3ccc(N)cc3)nc12`, the IC50 came to 4.58 µM.

As to `Cc1c(CN2CCN(C(=O)c3cc4cccc(C(N)=O)c4o3)CC2)sc2c(N3CCOCC3)nc(-c3ccc4cn[nH]c4c3)nc12`, the half-inhibitory concentration (IC50) is 3.57 µM.

As for `Cc1c(CN2CCN(C(=O)c3cc(Cc4n[nH]c(=O)c5ccccc45)ccc3F)CC2)sc2c(N3CCOCC3)nc(-c3cnc(N)cc3C(F)(F)F)nc12`, the 50% inhibitory concentration (IC50) stood at 1.08 µM.

On to `Cc1c(CN2CCN(C(=O)[C@H](C)O)CC2)sc2c(N3CCOCC3)nc(-c3cnc(N)nc3)nc12` [APITOLISIB], for which the IC50 came out at 3.21 µM.

Another assay relates to MDA-MB-231. The assay can be described thus: Antiproliferative activity against human BRCA proficient MDA-MB-231 cells assessed as reduction in cell growth incubated for 7 days by cell titer-glo assay. As to conditions: MDA-MB-231, 168 h. The format is functional, cell-based.
For `Cc1c(CN2CCN(C(=O)c3cc4cccc(C(N)=O)c4o3)CC2)sc2c(N3CCOCC3)nc(-c3ccc(N)cc3)nc12`, the IC50 was 7.17 µM.

As for `Cc1c(CN2CCN(C(=O)c3cc4cccc(C(N)=O)c4o3)CC2)sc2c(N3CCOCC3)nc(-c3ccc4cn[nH]c4c3)nc12`, the half-inhibitory concentration (IC50) was more than 10 µM.

Turning to `Cc1c(CN2CCN(C(=O)c3cc(Cc4n[nH]c(=O)c5ccccc45)ccc3F)CC2)sc2c(N3CCOCC3)nc(-c3cnc(N)cc3C(F)(F)F)nc12`, the IC50 stood at 3.6 µM.

In the case of `Cc1c(CN2CCN(C(=O)[C@H](C)O)CC2)sc2c(N3CCOCC3)nc(-c3cnc(N)nc3)nc12` [APITOLISIB], the IC50 amounted to 2.46 µM.

The test system of another assay is MDA-MB-468. Briefly: Antiproliferative activity against human BRCA proficient MDA-MB-468 cells assessed as reduction in cell growth incubated for 7 days by cell titer-glo assay. The format is functional, cell-based. As to conditions: MDA-MB-468, 168 h.
Take `Cc1c(CN2CCN(C(=O)c3cc4cccc(C(N)=O)c4o3)CC2)sc2c(N3CCOCC3)nc(-c3ccc(N)cc3)nc12`: the concentration for half-maximal inhibition (IC50) was 9.26 µM.

As to `Cc1c(CN2CCN(C(=O)c3cc4cccc(C(N)=O)c4o3)CC2)sc2c(N3CCOCC3)nc(-c3ccc4cn[nH]c4c3)nc12`, the 50% inhibitory concentration (IC50) is more than 10 µM.

For `Cc1c(CN2CCN(C(=O)c3cc(Cc4n[nH]c(=O)c5ccccc45)ccc3F)CC2)sc2c(N3CCOCC3)nc(-c3cnc(N)cc3C(F)(F)F)nc12`, the half-maximal inhibitory concentration (IC50) was 2.65 µM.

In the case of `Cc1c(CN2CCN(C(=O)[C@H](C)O)CC2)sc2c(N3CCOCC3)nc(-c3cnc(N)nc3)nc12` [APITOLISIB], the IC50 is 1.67 µM.

For the next assay, the target named is Poly [ADP-ribose] polymerase 2 (Homo sapiens, UniProt Q9UGN5). Briefly: Inhibition of PARP2 (unknown origin) using biotin-NAD+ as substrate incubated for 1 hr by ELISA.
Sequence of Poly [ADP-ribose] polymerase 2 (Q9UGN5 whole entry): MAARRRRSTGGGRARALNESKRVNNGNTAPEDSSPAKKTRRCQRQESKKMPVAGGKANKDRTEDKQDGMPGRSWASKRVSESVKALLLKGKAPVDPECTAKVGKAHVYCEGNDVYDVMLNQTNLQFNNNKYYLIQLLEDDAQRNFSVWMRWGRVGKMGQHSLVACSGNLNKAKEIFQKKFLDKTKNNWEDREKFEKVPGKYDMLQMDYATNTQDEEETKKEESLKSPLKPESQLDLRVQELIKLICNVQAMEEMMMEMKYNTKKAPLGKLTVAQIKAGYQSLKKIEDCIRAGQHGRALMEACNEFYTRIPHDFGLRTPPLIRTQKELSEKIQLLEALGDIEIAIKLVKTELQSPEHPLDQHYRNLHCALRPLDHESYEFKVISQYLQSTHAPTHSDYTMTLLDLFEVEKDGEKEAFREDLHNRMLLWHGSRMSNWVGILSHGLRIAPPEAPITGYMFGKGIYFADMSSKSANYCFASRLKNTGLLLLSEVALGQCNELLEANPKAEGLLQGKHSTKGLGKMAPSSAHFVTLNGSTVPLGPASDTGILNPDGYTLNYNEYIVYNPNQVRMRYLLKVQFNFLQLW
Details: not given
With `NC(=O)c1cccc2cc(C(=O)N3CCN(Cc4cc5nc(-c6cnc(N)nc6)nc(N6CCOCC6)c5s4)CC3)oc12`, the midpoint of inhibition, the IC50, lay at 0.00119 µM.

The target of the next assay is Phosphatidylinositol 4,5-bisphosphate 3-kinase catalytic subunit beta isoform (Homo sapiens, UniProt P42338). The assay can be described thus: Inhibition of PI3Kbeta (unknown origin) using PIP2 as substrate measured after 1 hr by ADP-glo plus luminescence assay.
Sequence of Phosphatidylinositol 4,5-bisphosphate 3-kinase catalytic subunit beta isoform (P42338 whole entry, canonical isoform): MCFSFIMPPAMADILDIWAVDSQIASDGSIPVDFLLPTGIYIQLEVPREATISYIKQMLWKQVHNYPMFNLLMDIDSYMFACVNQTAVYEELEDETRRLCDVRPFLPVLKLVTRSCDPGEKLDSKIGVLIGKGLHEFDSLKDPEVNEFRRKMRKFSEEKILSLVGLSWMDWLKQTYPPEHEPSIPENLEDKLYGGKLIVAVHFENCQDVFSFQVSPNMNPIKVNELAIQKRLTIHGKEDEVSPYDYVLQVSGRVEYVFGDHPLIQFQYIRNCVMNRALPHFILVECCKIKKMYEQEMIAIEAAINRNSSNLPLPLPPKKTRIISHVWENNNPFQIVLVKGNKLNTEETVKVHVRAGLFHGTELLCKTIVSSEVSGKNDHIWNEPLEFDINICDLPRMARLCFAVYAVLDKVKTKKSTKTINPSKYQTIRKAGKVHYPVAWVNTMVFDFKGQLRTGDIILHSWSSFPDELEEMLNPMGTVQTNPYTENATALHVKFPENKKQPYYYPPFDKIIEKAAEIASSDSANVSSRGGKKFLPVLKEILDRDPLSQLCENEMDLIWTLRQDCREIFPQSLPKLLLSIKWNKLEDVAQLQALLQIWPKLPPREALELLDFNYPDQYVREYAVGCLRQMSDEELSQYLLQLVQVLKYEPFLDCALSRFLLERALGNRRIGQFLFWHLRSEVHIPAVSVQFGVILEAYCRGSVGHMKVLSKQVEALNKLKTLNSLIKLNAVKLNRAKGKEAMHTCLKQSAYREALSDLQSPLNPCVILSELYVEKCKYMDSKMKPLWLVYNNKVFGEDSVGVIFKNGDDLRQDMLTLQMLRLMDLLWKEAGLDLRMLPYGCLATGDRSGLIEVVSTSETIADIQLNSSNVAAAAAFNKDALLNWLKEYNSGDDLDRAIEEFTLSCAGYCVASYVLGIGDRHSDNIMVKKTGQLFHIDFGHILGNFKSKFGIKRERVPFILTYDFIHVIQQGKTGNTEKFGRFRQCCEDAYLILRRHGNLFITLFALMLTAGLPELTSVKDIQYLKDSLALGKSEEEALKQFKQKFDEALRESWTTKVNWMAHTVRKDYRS
Details: not given
As to `NC(=O)c1cccc2cc(C(=O)N3CCN(Cc4cc5nc(-c6cnc(N)nc6)nc(N6CCOCC6)c5s4)CC3)oc12`, the half-maximal inhibitory concentration (IC50) was determined as 0.011 µM.

The target of another assay is Phosphatidylinositol 4,5-bisphosphate 3-kinase catalytic subunit gamma isoform (Homo sapiens, UniProt P48736). The assay can be described thus: Inhibition of PI3Kgamma (unknown origin) using PIP2 as substrate measured after 1 hr by ADP-glo plus luminescence assay.
Sequence of Phosphatidylinositol 4,5-bisphosphate 3-kinase catalytic subunit gamma isoform (P48736 whole entry, canonical isoform): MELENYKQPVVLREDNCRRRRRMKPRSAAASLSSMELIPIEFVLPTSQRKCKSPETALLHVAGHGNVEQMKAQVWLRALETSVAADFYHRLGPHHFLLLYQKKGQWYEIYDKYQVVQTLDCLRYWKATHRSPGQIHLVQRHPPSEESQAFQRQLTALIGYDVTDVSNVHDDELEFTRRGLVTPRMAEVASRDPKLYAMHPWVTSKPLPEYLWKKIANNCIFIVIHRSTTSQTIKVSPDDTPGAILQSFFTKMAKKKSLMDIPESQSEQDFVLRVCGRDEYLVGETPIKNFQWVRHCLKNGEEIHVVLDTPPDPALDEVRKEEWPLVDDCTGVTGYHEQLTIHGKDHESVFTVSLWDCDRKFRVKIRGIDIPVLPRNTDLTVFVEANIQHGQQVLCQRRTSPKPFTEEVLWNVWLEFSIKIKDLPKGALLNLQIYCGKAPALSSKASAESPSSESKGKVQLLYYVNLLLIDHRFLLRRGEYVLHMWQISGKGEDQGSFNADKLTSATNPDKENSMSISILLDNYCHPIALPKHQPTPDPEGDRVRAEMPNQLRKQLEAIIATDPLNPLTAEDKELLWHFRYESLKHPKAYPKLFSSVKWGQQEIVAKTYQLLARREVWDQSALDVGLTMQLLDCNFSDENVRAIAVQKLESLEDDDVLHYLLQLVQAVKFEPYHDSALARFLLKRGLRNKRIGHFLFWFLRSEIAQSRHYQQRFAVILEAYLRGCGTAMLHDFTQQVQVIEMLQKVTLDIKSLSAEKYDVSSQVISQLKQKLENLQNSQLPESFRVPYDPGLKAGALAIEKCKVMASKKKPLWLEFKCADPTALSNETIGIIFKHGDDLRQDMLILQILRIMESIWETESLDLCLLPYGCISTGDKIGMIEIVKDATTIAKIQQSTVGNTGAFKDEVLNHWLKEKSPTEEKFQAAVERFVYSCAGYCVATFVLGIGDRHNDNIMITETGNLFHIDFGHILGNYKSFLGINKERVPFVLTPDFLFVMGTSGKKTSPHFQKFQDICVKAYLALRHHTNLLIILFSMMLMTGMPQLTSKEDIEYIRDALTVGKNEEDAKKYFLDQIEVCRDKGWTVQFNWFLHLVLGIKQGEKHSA
Details: not given
As to `NC(=O)c1cccc2cc(C(=O)N3CCN(Cc4cc5nc(-c6cnc(N)nc6)nc(N6CCOCC6)c5s4)CC3)oc12`, the concentration for half-maximal inhibition (IC50) stood at 0.031 µM.

The target of another assay is T1, Phosphatidylinositol 4,5-bisphosphate 3-kinase catalytic subunit delta isoform (Homo sapiens, UniProt O00329).
T1 sequence (O00329 whole entry): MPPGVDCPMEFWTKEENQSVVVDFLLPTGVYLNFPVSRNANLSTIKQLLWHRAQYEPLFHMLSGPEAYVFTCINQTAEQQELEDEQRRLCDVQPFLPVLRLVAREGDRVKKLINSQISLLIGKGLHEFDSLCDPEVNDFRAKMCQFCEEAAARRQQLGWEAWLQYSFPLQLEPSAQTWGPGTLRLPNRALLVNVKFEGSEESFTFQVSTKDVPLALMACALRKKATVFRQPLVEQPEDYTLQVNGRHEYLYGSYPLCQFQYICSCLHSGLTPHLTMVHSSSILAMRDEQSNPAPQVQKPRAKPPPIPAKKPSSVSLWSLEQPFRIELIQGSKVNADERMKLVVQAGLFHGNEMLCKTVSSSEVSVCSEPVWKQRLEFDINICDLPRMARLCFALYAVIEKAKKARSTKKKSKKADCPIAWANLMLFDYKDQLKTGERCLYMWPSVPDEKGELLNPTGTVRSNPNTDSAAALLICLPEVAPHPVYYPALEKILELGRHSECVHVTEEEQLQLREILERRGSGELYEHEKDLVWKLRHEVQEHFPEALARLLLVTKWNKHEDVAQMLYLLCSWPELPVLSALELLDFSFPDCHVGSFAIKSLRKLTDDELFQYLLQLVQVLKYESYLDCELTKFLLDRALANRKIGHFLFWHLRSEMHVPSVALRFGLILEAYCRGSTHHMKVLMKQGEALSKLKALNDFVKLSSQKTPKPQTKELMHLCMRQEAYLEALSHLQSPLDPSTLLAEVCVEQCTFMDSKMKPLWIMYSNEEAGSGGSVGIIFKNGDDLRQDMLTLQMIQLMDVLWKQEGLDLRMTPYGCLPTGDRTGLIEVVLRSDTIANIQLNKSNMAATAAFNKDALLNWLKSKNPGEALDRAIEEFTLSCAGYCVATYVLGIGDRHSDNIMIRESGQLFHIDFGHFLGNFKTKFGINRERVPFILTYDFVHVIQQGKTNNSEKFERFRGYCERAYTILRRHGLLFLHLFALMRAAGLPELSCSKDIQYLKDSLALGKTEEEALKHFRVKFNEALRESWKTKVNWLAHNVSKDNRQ
Briefly: Inhibition of PI3Kdelta (unknown origin) using PIP2 as substrate measured after 2 hrs by ADP-glo plus luminescence assay.
Details: not given
For the compound `NC(=O)c1cccc2cc(C(=O)N3CCN(Cc4cc5nc(-c6cnc(N)nc6)nc(N6CCOCC6)c5s4)CC3)oc12`, the IC50 was found to be 0.0018 µM.

The next assay addresses Serine/threonine-protein kinase mTOR (Homo sapiens, UniProt P42345). Briefly: Inhibition of mTOR (unknown origin).
Details: not given
In turn, `NC(=O)c1cccc2cc(C(=O)N3CCN(Cc4cc5nc(-c6cnc(N)nc6)nc(N6CCOCC6)c5s4)CC3)oc12` gave an IC50 of 0.023 µM.

A further assay relates to MDA-MB-468. Briefly: Antitumor activity against human MDA-MB-468 cells xenografted in BALB/c mouse assessed as tumor growth inhibition at 27.5 mg/kg, ip once daily administered for 32 days relative to control. The format is functional. As to conditions: MDA-MB-468, ip, 768 h, time 32 day, read-out: TGI. A general note: In xenograft studies the graft and the host belong to different species.
Consider `Cc1c(CN2CCN(C(=O)[C@H](C)O)CC2)sc2c(N3CCOCC3)nc(-c3cnc(N)nc3)nc12` [APITOLISIB], for which the inhibition in vivo at 27.5 mg/kg came to 38%.

The subject of another assay is MDA-MB-468. Briefly: Antitumor activity against human MDA-MB-468 cells xenografted in BALB/c mouse assessed as tumor growth inhibition at 27.5 mg/kg, ip administered for 32 days along with olaparib relative to control. The format is functional. As to conditions: MDA-MB-468, ip, 768 h, time 32 day, read-out: TGI.
As for `Cc1c(CN2CCN(C(=O)[C@H](C)O)CC2)sc2c(N3CCOCC3)nc(-c3cnc(N)nc3)nc12` [APITOLISIB], the inhibition in vivo at 27.5 mg/kg worked out at 45.9%.
